# Data from patent publication US6677460B1, “Aromatic carboxylic acid bicyclic sulfur compounds” (Idemitsu Kosan Company, Limited, priority 1993, dated 2004).
# Legend:
# slender amaranth [1] = test: Upland soil treatment test (5); format: in vivo; details: dosage 100 g a.i./hectare, 20th day after treatment; note: ranges in brackets are in %
# Experimental: (§1) 90 Parts by weight of the above carrier and 10 parts by weight of each of Compounds obtained in the above Preparation Examples were uniformly pulverized and mixed to obtain herbicides. Further, for Herbicide Comparative Examples, comparative herbicides were prepared by uniformly pulverizing and mixing 90 parts by weight of the above carrier and 10 parts by weight of each of the following Compounds x, y, A, B and C.
# (§2) (5) Biological Test (Upland Soil Treatment Test, Herbicide Examples 10-26 and Comparative Example 9)
# (§3) Seeds of weeds such as large crabgrass, barnyard grass, green foxtail, cocklebur, velvetleaf and slender amaranth and seeds of corn, wheat and barley were sown in 1/5,000-are Wagner pots filled with upland soil, and covered with upland soil. Then, a predetermined amount of the herbicide prepared in the above (1) was suspended in water and uniformly sprayed onto the soil surface. Thereafter, the plants were grown in the greenhouse, and on 20th day after the treatment, the herbicide was evaluated for herbicidal efficacy.
# (§4) The dosage of each herbicide is indicated as an amount of the active ingredient per hectare. Further, air-dried weight were measured, and herbicidal efficacy and the pytotoxicity to corn are shown on the basis of the ratings described below.
# cocklebur [2] = test: Upland soil treatment test (5); format: in vivo; details: dosage 100 g a.i./hectare, 20th day after treatment; note: ranges in brackets are in %
# Experimental: as §1, §2, §3, §4
# large crabgrass [3] = test: Upland soil treatment test (5); format: in vivo; details: dosage 100 g a.i./hectare, 20th day after treatment; note: ranges in brackets are in %
# Experimental: as §1, §2, §3, §4
# barnyard grass [4] = test: Upland soil treatment test (5); format: in vivo; details: dosage 100 g a.i./hectare, 20th day after treatment; note: ranges in brackets are in %
# Experimental: as §1, §2, §3, §4
# green foxtail [5] = test: Upland soil treatment test (5); format: in vivo; details: dosage 100 g a.i./hectare, 20th day after treatment; note: ranges in brackets are in %
# Experimental: as §1, §2, §3, §4
# velvetleaf [6] = test: Upland soil treatment test (5); format: in vivo; details: dosage 100 g a.i./hectare, 20th day after treatment; note: ranges in brackets are in %
# Experimental: as §1, §2, §3, §4
# corn = test: Upland soil treatment test (5), phytotoxicity; format: in vivo; details: dosage 100 g a.i./hectare, 20th day after treatment
# Experimental: as §1, §2, §3, §4
# slender amaranth [7] = test: Foliar treatment test (2); format: in vivo; details: 20th day after treatment; note: ranges in brackets are in %
# Experimental: as §1
# (§5) (2) Biological Test (Foliar Treatment Test, Herbicide Examples 1 and 2 and Herbicide Comparative Examples 1 and 2)
# as §3, with “The seeds were grown in a greenhouse, and at the stage of 1˜2 leaves of these plants,” for “Then,”, “leaf and stalk portions at a rate of 200 liter/10 are.” for “the soil surface.”
# (§6) The herbicidal efficacy and phytotoxcity to crops were shown on the basis of the following ratings.
# (§7) The ratio of remaining plant weight to non-treated was determined on the basis of the ratio of remaining plant weight to non-treated=(remaining plant weight in treated plot/remaining plant weight in non-treated plot)×100. This is also applicable to biological tests hereinafter.
# cocklebur [8] = test: Foliar treatment test (2); format: in vivo; details: 20th day after treatment; note: ranges in brackets are in %
# Experimental: as §1, §5
# as §3, with “The seeds were grown in a greenhouse, and at the stage of 1˜2 leaves of these plants,” for “Then,”, “leaf and stalk portions at a rate of 200 liter/10 are.” for “the soil surface.”
# as §6, §7
# large crabgrass [9] = test: Foliar treatment test (2); format: in vivo; details: 20th day after treatment; note: ranges in brackets are in %
# Experimental: as §1, §5
# as §3, with “The seeds were grown in a greenhouse, and at the stage of 1˜2 leaves of these plants,” for “Then,”, “leaf and stalk portions at a rate of 200 liter/10 are.” for “the soil surface.”
# as §6, §7
# barnyard grass [10] = test: Foliar treatment test (2); format: in vivo; details: 20th day after treatment; note: ranges in brackets are in %
# Experimental: as §1, §5
# as §3, with “The seeds were grown in a greenhouse, and at the stage of 1˜2 leaves of these plants,” for “Then,”, “leaf and stalk portions at a rate of 200 liter/10 are.” for “the soil surface.”
# as §6, §7
# green foxtail [11] = test: Foliar treatment test (2); format: in vivo; details: 20th day after treatment; note: ranges in brackets are in %
# Experimental: as §1, §5
# as §3, with “The seeds were grown in a greenhouse, and at the stage of 1˜2 leaves of these plants,” for “Then,”, “leaf and stalk portions at a rate of 200 liter/10 are.” for “the soil surface.”
# as §6, §7
# velvetleaf [12] = test: Foliar treatment test (2); format: in vivo; details: 20th day after treatment; note: ranges in brackets are in %
# Experimental: as §1, §5
# as §3, with “The seeds were grown in a greenhouse, and at the stage of 1˜2 leaves of these plants,” for “Then,”, “leaf and stalk portions at a rate of 200 liter/10 are.” for “the soil surface.”
# as §6, §7
# slender amaranth [13] = test: Upland soil treatment test (3); format: in vivo; details: 20th day after treatment; note: ranges in brackets are in %
# Experimental: as §1
# (§8) (3) Biological Test (Upland Soil Treatment Test, Herbicide Examples 3 and 4 and Herbicide Comparative Examples 3 and 4)
# as §3, with “barnyardgrass,” for “barnyard grass,”
# (§9) The herbicidal efficacy and the phytotoxicity to crops are shown on the basis of the ratings described in (2) Foliar treatment test.
# cocklebur [14] = test: Upland soil treatment test (3); format: in vivo; details: 20th day after treatment; note: ranges in brackets are in %
# Experimental: as §1, §8
# as §3, with “barnyardgrass,” for “barnyard grass,”
# as §9
# large crabgrass [15] = test: Upland soil treatment test (3); format: in vivo; details: 20th day after treatment; note: ranges in brackets are in %
# Experimental: as §1, §8
# as §3, with “barnyardgrass,” for “barnyard grass,”
# as §9
# barnyard grass [16] = test: Upland soil treatment test (3); format: in vivo; details: 20th day after treatment; note: ranges in brackets are in %
# Experimental: as §1, §8
# as §3, with “barnyardgrass,” for “barnyard grass,”
# as §9
# green foxtail [17] = test: Upland soil treatment test (3); format: in vivo; details: 20th day after treatment; note: ranges in brackets are in %
# Experimental: as §1, §8
# as §3, with “barnyardgrass,” for “barnyard grass,”
# as §9
# velvetleaf [18] = test: Upland soil treatment test (3); format: in vivo; details: 20th day after treatment; note: ranges in brackets are in %
# Experimental: as §1, §8
# as §3, with “barnyardgrass,” for “barnyard grass,”
# as §9
compound,measurement,setting,value
"CCn1ncc(C(=O)c2cc(C)c3c(c2C)C(C)(C)CCS3(=O)=O)c1O [Compound 1, 4,4,5,8-tetramethyl-6-(1-ethyl-5-hydroxypyrazol-4-yl)carbonyl-thiochroman-1,1-dioxide]",Herbicidal Efficacy slender amaranth,slender amaranth [1],5 (0)
same,Herbicidal Efficacy cocklebur,cocklebur [2],5 (0)
same,Herbicidal Efficacy large crabgrass,large crabgrass [3],5 (0)
same,Herbicidal Efficacy barnyard grass,barnyard grass [4],5 (0)
same,Herbicidal Efficacy green foxtail,green foxtail [5],5 (0)
same,Herbicidal Efficacy velvetleaf,velvetleaf [6],5 (0)
same,melting point,,208.8 to 209.3 °C
same,Phyto-toxicity to corn,corn,0 (100)
same,Herbicidal Efficacy slender amaranth,slender amaranth [7]; dosage 3 g a.i./are,5 (0)
same,Herbicidal Efficacy slender amaranth,slender amaranth [7]; dosage 10 g a.i./are,5 (0)
same,Herbicidal Efficacy cocklebur,cocklebur [8]; dosage 3 g a.i./are,5 (0)
same,Herbicidal Efficacy cocklebur,cocklebur [8]; dosage 10 g a.i./are,5 (0)
same,Herbicidal Efficacy large crabgrass,large crabgrass [9]; dosage 3 g a.i./are,5 (0)
same,Herbicidal Efficacy large crabgrass,large crabgrass [9]; dosage 10 g a.i./are,5 (0)
same,Herbicidal Efficacy barnyard grass,barnyard grass [10]; dosage 3 g a.i./are,5 (0)
same,Herbicidal Efficacy barnyard grass,barnyard grass [10]; dosage 10 g a.i./are,5 (0)
same,Herbicidal Efficacy green foxtail,green foxtail [11]; dosage 3 g a.i./are,5 (0)
same,Herbicidal Efficacy green foxtail,green foxtail [11]; dosage 10 g a.i./are,5 (0)
same,Herbicidal Efficacy velvetleaf,velvetleaf [12]; dosage 3 g a.i./are,5 (0)
same,Herbicidal Efficacy velvetleaf,velvetleaf [12]; dosage 10 g a.i./are,5 (0)
same,Herbicidal Efficacy slender amaranth,slender amaranth [13]; dosage 3 g a.i./are,5 (0)
same,Herbicidal Efficacy slender amaranth,slender amaranth [13]; dosage 10 g a.i./are,5 (0)
same,Herbicidal Efficacy cocklebur,cocklebur [14]; dosage 3 g a.i./are,5 (0)
same,Herbicidal Efficacy cocklebur,cocklebur [14]; dosage 10 g a.i./are,5 (0)
same,Herbicidal Efficacy large crabgrass,large crabgrass [15]; dosage 3 g a.i./are,5 (0)
same,Herbicidal Efficacy large crabgrass,large crabgrass [15]; dosage 10 g a.i./are,5 (0)
same,Herbicidal Efficacy barnyard grass,barnyard grass [16]; dosage 3 g a.i./are,5 (0)
same,Herbicidal Efficacy barnyard grass,barnyard grass [16]; dosage 10 g a.i./are,5 (0)
same,Herbicidal Efficacy green foxtail,green foxtail [17]; dosage 3 g a.i./are,5 (0)
same,Herbicidal Efficacy green foxtail,green foxtail [17]; dosage 10 g a.i./are,5 (0)
same,Herbicidal Efficacy velvetleaf,velvetleaf [18]; dosage 3 g a.i./are,5 (0)
same,Herbicidal Efficacy velvetleaf,velvetleaf [18]; dosage 10 g a.i./are,5 (0)
